Patent US20070059294A1, “Therapeutiv preparation for hematopoietic disease” (priority 2003, published 2007)

Assays:
Format in all cases: cell-based, mouse
[1] = tested on: syno^−/− MEFs; experiment: TUNEL apoptosis assay of MEFs treated with apoptotic stimuli; conditions: thapsigargin 1 μM 48 h, tunicamycin 10 ng/ml 48 h; for proportion of apoptotic (TUNEL-positive) cells: syno^−/− MEFs, low serum (1% FCS), anti-Fas 1 μg/ml 48 h
Procedure: (§1) Apoptosis can be induced through several pathways. To identify the apoptotic pathway that describes Synoviolin involvement, mouse embryonic fibroblasts (MEFs) isolated from syno^−/− and wild-type mice were treated in vitro with the following four apoptotic stimuli, monoclonal anti-Fas antibodies (Abs), gamma-irradiation, tunicamycin (N-glycosylation inhibitor), and thapsigargin (Ca^2-ATPase inhibitor). Under control conditions, the proportion of syno^−/− MEF apoptotic cells was higher (16±4%) than MEF wild-type (6±2%, FIG. 5A). […] Moreover, the sensitivity against ER stress-induced agents was increased in a dose-dependent fashion (FIG. 5B).
(§2) Tissues were prepared as described above. Conditioned culture cells were fixed in 10% formalin for 15 minutes and attached to APS-coated slide glasses. These specimens were subjected to TUNEL assay. TUNEL assay was performed according to the protocol provided by the manufacturer (Apoptosis in situ detection kit; Wako, Osaka, Japan).
(§3) MEFs were isolated from E10.5 embryos of syno^−/− and wild-type mice by trypsin digestion after removal of the head and internal organs. Isolated cells were cultured in Dulbecco's modified Eagle's medium containing 20% fetal calf serum (FCS).
(§4) (A) MEFs derived from syno^+/+ and syno^−/− mice were treated with various apoptotic stimuli, including anti-Fas monoclonal antibodies (1μg/ml for 48 hours), X-irradiation (6 Gy for 72 hours), thapsigargin (1 μM for 48 hours) and tunicamycin (10 ng/ml for 48 hours), or untreated (−), in low serum (1%FCS) medium. Apoptotic cells were detected by TUNEL analysis. (B) syno^+/+ and syno^−/− MEFs were treated with indicated dose of stimuli. Apoptosis was measured by quantitation of DNA fragmentation using the cell death detection ELISA method (Boehringer Mannheim). *p<0.01. The number of apoptotic syno^−/− MEFs was higher in cultures treated with thapsigargin and tunicamycin compared with the respective syno^+/+ MEFs. (C) syno^+/+ and syno^−/− MEFs were infected with adenovirus vector (100 moi) carrying LacZ(−) or synoviolin gene(+), then treated with the same aforementioned agents. In syno^−/− MEFs, ER-stress induced apoptosis was rescued by infection with synoviolin.

[2] = tested on: wild-type MEFs; experiment: as above; conditions: low serum (1% FCS), anti-Fas 1 μg/ml 48 h, thapsigargin 1 μM 48 h, tunicamycin 10 ng/ml 48 h
Procedure: as §1, §2, §3, §4

[3] = tested on: syno^−/− MEFs; experiment: DNA fragmentation, cell death detection ELISA; conditions: indicated doses of stimuli, FIG. 5B, p<0.01
Procedure: as §4

Molecule | proportion of apoptotic (TUNEL-positive) cells [1] | increase in number of TUNEL-positive syno^−/− MEFs compared with wild-type MEFs [1] | proportion of apoptotic (TUNEL-positive) cells [2] | number of apoptotic syno^−/− MEFs compared with the respective syno^+/+ MEFs [3]
tunicamycin | 56±3% | 1.7 fold | 33±7% | higher
C/C=C(/C)C(=O)O[C@H]1C(C)=C2[C@H]([C@@H]1OC(=O)CCCCCCC)[C@@](C)(OC(C)=O)C[C@H](OC(=O)CCC)[C@@]1(O)[C@H]2OC(=O)[C@@]1(C)O [thapsigargin] | 90±1% | 2.4 fold | 38±7% | higher
